Literature values as cited in US7102020B2, “Total synthesis of daurichromenic acid” (priority 2002, dated 2006).

Tested on: HIV
Conditions: acutely infected H9 cells

CC(C)=CCC/C(C)=C/CC[C@@]1(C)C=Cc2c(cc(C)c(C(=O)O)c2O)O1 [Daurichromenic acid]
anti-HIV activity EC50: 5.67 ng/mL
